These are literature values, as cited in publication PMC6337720 (Inorganic chemistry, 2018).

Molecules are shown by their SMILES.

The conditions of the data set: aerated CH3CN.

`F[P-](F)(F)(F)(F)F.F[P-](F)(F)(F)(F)F.[Ru+2].c1ccc(-c2ccccn2)nc1.c1ccc(-c2ccccn2)nc1.c1ccc(-c2ccccn2)nc1` [[Ru(bpy)3](PF6)2]: the “ΦΔ singlet oxygen quantum yield of the standard” value was 0.56.
